Structures can show the parent of a compound that is named as a salt. Where two headings read alike, the source gives them in different places.
Assays:
[1] = recently discovered; cited from earlier work
[2] = tested on: acetic test upon mice; assay: acetic test upon mice, analgesic effect (Siegmund method as modified by Koster, Anderson and Debeer); type: in vivo; conditions: Mus musculus
Excerpt: The compounds are identified by the numbers of the examples.

[3] = tested on: carrageenin-induced oedema; assay: carrageenin-induced oedema test upon rats, anti-inflammatory effect (Winter et al.); type: in vivo; conditions: Rattus norvegicus, phenylbutazone control, read-out: Carrageenin (A.D. 30, mg/kg)
Procedure: (§1) The pharmacological, analgesic and anti-inflammatory effectiveness and the slightly ulcerating effect of the propionic acids and their functional derivatives was determined by various methods. The compounds are identified by the numbers of the examples.
The anti-inflammatory effect of the compounds claimed was established, inter alia, by the carrageenin-induced oedema test upon rats (Winter et al. -- Proc. Soc. Exp. Biol. Med. 1962, Vol. III, pages 544 and 547). The results obtained with certain of the compounds of the invention are given below in Table II (phenylbutazone was used as a control).

[4] = tested on: ulcers; assay: aggravation of ulcers already caused in rats (Shay et al.), ulcerating effect; type: in vivo
Procedure: as §1
The compounds were compared with phenylbutazone in order to evaluate their ulcerating effect. The method used was that of aggravating ulcers which has already been caused in rats by the procedure described by Shay et al (Gastroenterology, 1945, Vol. 5, pages 43 to 61).

[5] = observations made during clinical trials; type: in vivo, human (patients: Mrs. / Mr.)
Procedure: Pharmaceutical compositions comprising a compound of the invention as their active ingredient and a physiologically acceptable, solid or liquid pharmaceutical excipient or diluent enable the active ingredient to be administered in daily doses of from 20 to 1000 mg. Among the observations made during clinical trials with the compound of Example 13 the following may be mentioned:
Among the observations made during clinical trials of the compound of Example 22 may be mentioned the following five: […]

[6] = mice, acetic test, aspirin control, read-out: ED50
[7] = A person, cervical pain from arthritic spine, four 100 mg tablets per day, 8 days
[8] = A person, pseudoarthrosis of the knee, five 100 mg tablets per day, 8 days
[9] = A person, stripping of varicose veins, six 100 mg tablets per day, 5 days
[10] = person one, sciatica, four 100 mg tablets per day, 10 days
[11] = person two, post-fracture gonarthrosis, four 100 mg tablets per day, 10 days
[12] = A person, inflammation of arteries in lower limbs, four 150 mg tablets per day, five days
[13] = A person, lumbar arthrosis, six 150 mg tablets per day, 10 days
[14] = A person, removal of left knee-cap, six 150 mg tablets per day, 5 days
[15] = A person, very intense lumbar pain, four 150 mg tablets per day, ten days

For `O=C(O)Cc1ccc2oc(-c3ccccc3)cc(=O)c2c1` [6-(2-Phenylchromonyl) acetic acid], the choleretic activity [1] is given as “choleretic activity”.
With `CC(=O)Oc1ccccc1C(=O)O` [Aspirin, reference compound] the ED50 [2] was 130 mg/kg.
With `CC(C(=O)O)c1ccc2oc(-c3cccs3)cc(=O)c2c1` (stereo not drawn) [Example 13, 2-[2'-(α-Thienyl)-6'-chromonyl]propionic acid] the ED50 [2, 6] was 1.5 mg/kg, the ED30 [3] was 10 mg/kg and the “Aggravation of ulceration, Coefficient” value ([4]; dose 300 mg/kg body weight/PO) was 50. For the same molecule, the analgesic effect [5, 7] was “good”, the “movement in the neck” value [5, 7] was “restored movement to normal amplitude in the neck unaccompanied by pain” and the antiinflammatory effect [5, 8] was “very good”. For the same molecule, the “duration of relief of pain” value [5, 8] was “three”, the relief of pain [5, 8] was “good” and the duration of relief [5, 9] was 3 h. The relief [5, 9] was “complete”, the “time after administration until relief apparent” value [5, 9] was “less than 30 minutes” and the tolerance ([5]; A person, five 100 mg tablets per day, 8 days) was “perfect”. The tolerance ([5]; A person, four 100 mg tablets per day, 8 days) was “very good”, the tolerance ([5]; A person, six 100 mg tablets per day, 5 days) was “very good” and the analgesic effect [5, 10] was “excellent”. For the same molecule, the “improvement in the results of the Lasegue test” value [5, 10] was “from 45 to 75”, the tolerance ([5]; person one, four 100 mg tablets per day, 10 days) was “complete” and the analgesic effect [5, 11] was “very positive”. For the same molecule, the knee flexion improvement [5, 11] was “from 15 to 25”, the “results on the knee” value [5, 11] was “excellent” and the “temperature of the knee” value [5, 11] was “returned to its normal temperature”. The tolerance ([5]; person two, four 100 mg tablets per day, 10 days) was “good”.
In the case of `CC(C(=O)O)c1ccc2oc(-c3ccccc3)cc(=O)c2c1` (stereo not shown) [Example 22, 2-(6'-Flavonyl)propionic acid], the ED50 [2, 6] is reported as 9 mg/kg, the ED30 [3] is reported as 65 mg/kg and the “Aggravation of ulceration, Coefficient” value ([4]; dose 300 mg/kg body weight/PO) is reported as 60. For the same molecule, the duration of relief [5, 12] was “more than three”, the relief [5, 12] was “very distinct relief” and the “time after administration until relief” value [5, 12] was “less than 30 minutes”. For the same molecule, the duration of relief [5, 13] was “three”, the functional improvement [5, 13] was “appreciable functional improvement” and the “time after administration until relief” value [5, 13] was “thirty”. The “results against pain and signs of inflammation” value ([5]; A person, pain in neck and arm, four 150 mg tablets per day, eight days) was “very good”, the duration of relief [5, 14] was greater than 3 h and the relief [5, 14] was “complete”. For the same molecule, the “time until relief appears” value [5, 14] was “less than 30 minutes”, the antalgic effect [5, 15] was “excellent” and the “distance which the patient could move their fingertips towards the ground” value [5, 15] was “from 40 to 5”. For the same molecule, the improvement [5, 15] was “very pronounced improvement”, the tolerance ([5]; A person, four 150 mg tablets per day, eight days) was “complete” and the tolerance ([5]; A person, four 150 mg tablets per day, five days) was “satisfactory”. The tolerance ([5]; A person, four 150 mg tablets per day, ten days) was “complete”, the tolerance ([5]; A person, six 150 mg tablets per day, 5 days) was “good” and the tolerance ([5]; A person, six 150 mg tablets per day, 10 days) was “complete”.
`CCCOC(=O)C(C)c1ccc2oc(-c3ccccc3)cc(=O)c2c1` (stereo not shown) [Example 25, Propyl 2-(2'-phenyl-6'-chromonyl)propionate] gave an ED50 [2, 6] of 6 mg/kg and an ED30 [3] of 85 mg/kg.
Work on `COC(=O)C(C)c1ccc2oc(-c3cccs3)cc(=O)c2c1` (stereo not drawn) [Example 29, Methyl 2-[2'-(α-thienyl)-6'-chromonyl]propionate] yielded an ED50 [2, 6] of 2.3 mg/kg and an ED30 [3] of 37 mg/kg.
`CC(C(=O)OCCN1CCOCC1)c1ccc2oc(-c3cccs3)cc(=O)c2c1` (stereo not drawn) [Example 32, The acid oxalate of β-morpholinoethyl-2-[2'-(α-thienyl)-6'-chromonyl]propionate] showed an ED50 [2, 6] of 4.6 mg/kg.
In the case of `CCCCC1C(=O)N(c2ccccc2)N(c2ccccc2)C1=O` [Phenylbutazone, reference compound], the ED30 [3] is reported as 50 mg/kg and the “Aggravation of ulceration, Coefficient” value ([4]; dose 200 mg/kg body weight/PO) is reported as 100.
